Laboratory results from patent US6372799B1, “Non-sedating diphenhydramine metabolites” (Bridge Pharma, Inc., priority 1998, dated 2002).

Test system: physostigmine-induced lethality in mice
Experiment: Sedative effects in vivo, physostigmine-induced lethality test
Conditions: result in words, figures not given
Protocol: The physostigmine-induced lethality test is being used in the present studies. This test is a modification of the sedation test technique reported by VILLANI et al., in U.S. Pat. No. 4,659,716. In short, physostigmine (1.9 mg/kg s.c.) produces 90-100% lethality when given to grouped mice with 10 animals in each plastic cage (approx. 11×26×13 cm). Mice administered a sedating agent, such as for example a sedative antihistamine prior to physostigmine are protected and survive. In the present study, test compounds are administered orally 60 minutes prior to physostigmine. The number of survivors is counted 30 minutes after physostigmine administration.

SMILES: CN(C)CCOC(c1ccccc1)c1ccccc1 [diphenhydramine, DIPHENHYDRAMINE]
- sedative activity / sedative side effects: profound sedative side effects
